One assay concerns the target T1, ASIC1a (Mus musculus, UniProt Q6NXK8).
T1 construct: from tissue; host or cells: brain of living wild-type mice (C57/B16 background), ICV injection
T1 sequence (Q6NXK8 1-526): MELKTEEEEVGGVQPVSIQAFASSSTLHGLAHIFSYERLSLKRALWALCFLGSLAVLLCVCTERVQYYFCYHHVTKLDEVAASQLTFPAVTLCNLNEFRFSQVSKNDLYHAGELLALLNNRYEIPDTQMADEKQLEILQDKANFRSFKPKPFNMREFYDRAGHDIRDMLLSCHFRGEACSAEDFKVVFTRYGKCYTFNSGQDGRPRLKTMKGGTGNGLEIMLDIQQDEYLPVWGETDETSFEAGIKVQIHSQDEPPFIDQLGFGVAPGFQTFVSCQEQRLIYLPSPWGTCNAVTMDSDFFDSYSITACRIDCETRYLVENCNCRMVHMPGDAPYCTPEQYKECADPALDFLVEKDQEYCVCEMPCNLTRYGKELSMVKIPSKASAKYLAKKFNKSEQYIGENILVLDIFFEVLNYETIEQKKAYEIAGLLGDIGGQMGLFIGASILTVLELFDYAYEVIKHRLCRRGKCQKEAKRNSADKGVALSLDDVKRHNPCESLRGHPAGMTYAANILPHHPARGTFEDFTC
The experiment in a line: Kainate-induced seizures after ICV injection of PcTx1 in wild-type mice. The note with it: ICV injection 2 hours before kainate 20 mg/kg IP. The class given is in vivo. The procedure: Similar effects on seizure activity with both ASIC1a gene disruption and pharmalogical blockade indicate that developmental abnormalities were not responsible for the effects in ASIC1a−/− mice.
Left-lateral, ICV guide cannulae were implanted in anesthetized mice (relative to bregma: anteroposterior −0.3 mm, lateral−1.0 mm, ventral=3.0 mm) and verified by methylene blue injection after euthanasia. Three to five days later, 5 uL or PcTx1-containing venom (SpiderPharm, Yarnell, Ariz.) ([…]) was injected in ACSF (in mM: NaCl 124, KCl 3, NaH2PO4 1.2, MgSO4 1.2, CaCl2 2, NaHCO3 26) or ACSF alone into wild-type mice using a 10 uL-Hamilton syringe connected to a 30-gauge injection (over 10 seconds). Two hours later, mice were injected with kainate (20 mg/kg, IP) then mouse behavior was scored. Continuous, tonic-clonic seizures were identified by tonus and clonus in all four limbs with loss of posture lasting greater than 60 seconds.

Assay [1] relates to PTZ-evoked lethal seizures. The assay is described as follows: CO2 inhalation at onset of PTZ-evoked generalized seizures, survival. The class given is in vivo, mouse. The note with it: 90 mg/kg PTZ IP, 10% CO2 in air for 15 minutes from onset of generalized seizures. The procedure:
Age (13-16 weeks) and gender-matched ASIC1a+/+ and ASIC1a−/− mice were injected IP with 90 mg/kg PTZ to test the anti-epileptic effects of CO2. A high dose of PTZ was administered to evoke lethal seizures in mice of both genotypes (FIG. 6a). Kaplan-Meier survival analysis of ASIC1a+/+ and ASIC1a−/− mice in response to 90 mg/kg PTZ while breathing compressed air was conducted (+/+, n 7; −/−, n=7). Both mice had the same rate of reduced survival (Mantel-Cox Log Rank, p=0.582).
After the onset of generalized-clonic seizures (identified behaviorally by clonus in all four limbs), compressed air or 10% CO2 (in air) was rapidly administered in an airtight Plexiglas chamber for 15 minutes (FIG. 6b). The onset latency and time of CO2 administration was similar between genotypes (inset) (unpaired T-test, df (14), t=0.663, p=0.518). The chamber was perfused with CO2 until minute 15, and then switched to compressed air for the duration of the trial (+/+, n=8; −/−, n=8). […] In the ASIC1a−/− mice, seizures continued to progress rapidly to death. All of the ASIC1a+/+ mice survived until the CO2 was switched back to air at minute 15, whereupon the mice rapidly died. The results verified the in vitro findings and taught that ASIC1a also mediates the anti-epileptic effects of low pH in vivo.

For psalmotoxin 1 [PcTx1], the “incidence of continuous GTCS following kainate injection” value with ASIC1a is recorded as “increased the incidence of continuous GTCS”. For `O=C=O` [CO2, carbon dioxide], the figures for the “effect on lethal seizures (survival)” value in assay [1] (ASIC1a-/- mice) and in assay [1] (WT (ASIC1a+/+) mice) were “had little effect” and “prevented lethal seizures”, respectively.

These data come from patent US20090291150A1, “METHOD AND COMPOSITIONS FOR TREATING AND […] BY […]-SENSING ION CHANNEL ACTIVITY” (priority 2008, published 2009).
